Tested on: patients after acute myocardial infarction
Experiment: TCM symptom score, total and single (chest pain, chest tightness, short breath, fatigue, palpitation, spontaneous perspiration, pale complexion), same clinical trial
Type: in vivo, human
Set-up: total score of TCM symptom, Mean / total score of TCM symptom, Min / total score of TCM symptom, Max / total score of TCM symptom, Md / change of total score of TCM symptom, Mean / change of total score of TCM symptom, Max / change of total score of TCM symptom, Md: scale not given here
Details: PP
Excerpt: 3508 patients who were in accordance with the diagnostic standards of AMI for 28 days to 2 years and differentiated as Qi deficiency and blood stagnation syndrome by TCM were studied. 0.5 g Chinese medicine composition prepared by the method of EXAMPLE 1 (Coded as QSYQ) was administrated half an hour after meal, 3 times per day.
They included the overall survival time, angina pectoris score, TCM symptom score and life quality score, where angina pectoris score, TCM symptom score and life quality score were evaluated at randomization, in 1st, 3rd, 6th, 9th, 12th month after treatment and 18th month after follow-up.
The analysis method referred to the angina pectoris score.

[1] = 6 months after treatment-baseline
[2] = 9 months after treatment-baseline

## CC(=O)Oc1ccccc1C(=O)O [Control group, aspirine]
[1]
  change of spontaneous perspiration 0, number of patients: 774
  change of spontaneous perspiration 0, percent of patients: (54.32%)
  change of spontaneous perspiration 1, number of patients: 414
  change of spontaneous perspiration 1, percent of patients: (29.05%)
  change of spontaneous perspiration 2, number of patients: 88
  change of spontaneous perspiration 2, percent of patients: (6.18%)
  change of spontaneous perspiration 3, number of patients: 24
  change of spontaneous perspiration 3, percent of patients: (1.68%)
  change of spontaneous perspiration −1, number of patients: 105
  change of spontaneous perspiration −1, percent of patients: (7.37%)
  change of spontaneous perspiration −2, number of patients: 20
  change of spontaneous perspiration −2, percent of patients: (1.40%)
  change of spontaneous perspiration −3, number of patients: 0
  change of spontaneous perspiration −3, percent of patients: (0.00%)
  change of total score of TCM symptom, Max: 19.00
  change of total score of TCM symptom, Md: −3.00
  change of total score of TCM symptom, Mean: −4.11
  change of total score of TCM symptom, Min: −28.00
9 months after treatment
  distribution of total score of TCM symptom: Medium, number of patients: 323
  distribution of total score of TCM symptom: Medium, percentage of patients: (22.84%)
  distribution of total score of TCM symptom: Mild, number of patients: 1088
  distribution of total score of TCM symptom: Mild, percentage of patients: (76.94%)
  distribution of total score of TCM symptom: Severe, number of patients: 3
  distribution of total score of TCM symptom: Severe, percentage of patients: (0.21%)
  fatigue score 0, % of patients: (35.22%)
  fatigue score 0, number of patients: 498
  fatigue score 2, % of patients: (60.61%)
  fatigue score 2, number of patients: 857
  fatigue score 4, % of patients: (3.47%)
  fatigue score 4, number of patients: 49
  fatigue score 6, % of patients: (0.71%)
  fatigue score 6, number of patients: 10
  pale complexion score 0, number of patients: 788
  pale complexion score 0, percent of patients: (55.69%)
  pale complexion score 1, number of patients: 520
  pale complexion score 1, percent of patients: (36.75%)
  pale complexion score 2, number of patients: 101
  pale complexion score 2, percent of patients: (7.14%)
  pale complexion score 3, number of patients: 6
  pale complexion score 3, percent of patients: (0.42%)
  palpitation score 0, number of patients: 496
  palpitation score 0, percent of patients: (35.05%)
  palpitation score 2, number of patients: 782
  palpitation score 2, percent of patients: (55.27%)
  palpitation score 4, number of patients: 122
  palpitation score 4, percent of patients: (8.62%)
  palpitation score 6, number of patients: 15
  palpitation score 6, percent of patients: (1.06%)
  short breath score 0, % of patients: (29.42%)
  short breath score 0, number of patients: 416
  short breath score 3, % of patients: (58.27%)
  short breath score 3, number of patients: 824
  short breath score 6, % of patients: (11.95%)
  short breath score 6, number of patients: 169
  short breath score 9, % of patients: (0.35%)
  short breath score 9, number of patients: 5
  spontaneous perspiration score 0, number of patients: 678
  spontaneous perspiration score 0, percent of patients: (47.95%)
  spontaneous perspiration score 1, number of patients: 652
  spontaneous perspiration score 1, percent of patients: (46.11%)
  spontaneous perspiration score 2, number of patients: 79
  spontaneous perspiration score 2, percent of patients: (5.59%)
  spontaneous perspiration score 3, number of patients: 5
  spontaneous perspiration score 3, percent of patients: (0.35%)
  total score of TCM symptom, Max: 37.00
  total score of TCM symptom, Md: 8.00
  total score of TCM symptom, Mean: 8.88
  total score of TCM symptom, Min: 0.00
[2]
  change of fatigue 0, % of patients: (48.12%)
  change of fatigue 0, number of patients: 679
  change of fatigue 2, % of patients: (35.65%)
  change of fatigue 2, number of patients: 503
  change of fatigue 4, % of patients: (7.94%)
  change of fatigue 4, number of patients: 112
  change of fatigue 6, % of patients: (1.28%)
  change of fatigue 6, number of patients: 18
  change of fatigue −2, % of patients: (6.52%)
  change of fatigue −2, number of patients: 92
  change of fatigue −4, % of patients: (0.50%)
  change of fatigue −4, number of patients: 7
  change of fatigue −6, % of patients: (0.00%)
  change of fatigue −6, number of patients: 0
  change of pale complexion 0, number of patients: 1049
  change of pale complexion 0, percent of patients: (74.66%)
  change of pale complexion 1, number of patients: 316
  change of pale complexion 1, percent of patients: (22.49%)
  change of pale complexion −1, number of patients: 40
  change of pale complexion −1, percent of patients: (2.85%)
  change of palpitation 0, number of patients: 749
  change of palpitation 0, percent of patients: (53.12%)
  change of palpitation 1, number of patients: 493
  change of palpitation 1, percent of patients: (34.96%)
  change of palpitation 2, number of patients: 71
  change of palpitation 2, percent of patients: (5.04%)
  change of palpitation 3, number of patients: 6
  change of palpitation 3, percent of patients: (0.43%)
  change of palpitation −1, number of patients: 87
  change of palpitation −1, percent of patients: (6.17%)
  change of palpitation −2, number of patients: 4
  change of palpitation −2, percent of patients: (0.28%)
  change of short breath 0, % of patients: (56.60%)
  change of short breath 0, number of patients: 798
  change of short breath 2, % of patients: (33.33%)
  change of short breath 2, number of patients: 470
  change of short breath 4, % of patients: (3.83%)
  change of short breath 4, number of patients: 54
  change of short breath 6, % of patients: (0.50%)
  change of short breath 6, number of patients: 7
  change of short breath −2, % of patients: (5.53%)
  change of short breath −2, number of patients: 78
  change of short breath −4, % of patients: (0.14%)
  change of short breath −4, number of patients: 2
  change of short breath −6, % of patients: (0.07%)
  change of short breath −6, number of patients: 1
  change of spontaneous perspiration 0, number of patients: 717
  change of spontaneous perspiration 0, percent of patients: (50.85%)
  change of spontaneous perspiration 1, number of patients: 434
  change of spontaneous perspiration 1, percent of patients: (30.78%)
  change of spontaneous perspiration 2, number of patients: 105
  change of spontaneous perspiration 2, percent of patients: (7.45%)
  change of spontaneous perspiration 3, number of patients: 26
  change of spontaneous perspiration 3, percent of patients: (1.84%)
  change of spontaneous perspiration −1, percent of patients: (8.65%)
  change of spontaneous perspiration −2, number of patients: 6
